The data set can be described thus: Breakdown of active substance during preparation of wax premix by the melt method. Type of data set: physicochemical. To be noted: comparative Example C, montan wax melt at 110° C. How it is done:
Preparation of a wax premix by the melt method.
32 parts by weight of montan wax in sheet form are heated, in a mixer, at 110° C. to give a melt. To this melt there are added
15 parts by weight of cyclosulfamuron in the form of particles with an average diameter of 5μ with stirring at 110° C. The resulting suspension is stirred at high speed for 10 minutes at 110° C. and then treated portionwise with
26.5 parts by weight of highly-disperse silica while stirring is continued at full mixer speed. The resulting flowable powder is cooled to room temperature with stirring and with addition of
26.5 parts by weight of talc.
This gives a wax premix consisting of agglomerated particles. Approximately 10 percent by weight of the cyclosulfamuron present are broken down.

The source of these data is patent US20030108584A1, “Method for producing wax premixes” (priority 2000, published 2003).

SMILES strings stand for the structures.

Take `COc1cc(OC)nc(NC(=O)NS(=O)(=O)Nc2ccccc2C(=O)C2CC2)n1` [cyclosulfamuron]: the “cyclosulfamuron present broken down” value is listed as “Approximately 10 percent by weight”.
